# From patent US20240277717A1, “APPLICATION OF GANCICLOVIR IN PREPAPRATION OF MEDICINE FOR TREATING ALLERGIC RHINITIS” (Union Hospital, Tongji Medical College, Huazhong University …, priority 2023, published 2024)
# Assays:
# [1] = tested on: eosinophils in nasal secretions; experiment: Nasal secretion smears, percentage of eosinophils in inflammatory cells; assay type: in vivo, human
# Excerpt: The patients blow their nose (both sides), or gently rotate a glass rod at a front end of the patients' nasal vestibule to obtain the nasal secretions, avoiding rubbing the mucosal surface as much as possible. The obtained nasal secretions are evenly and lightly coated on slides, and a coverage area of the nasal secretion smear is required to exceed ⅔ of the slides. After natural air drying, the slides are dyed with Wright-Giemsa stain (Baso Diagnostics Inc. Zhuhai; China). After dyeing, cells are counted under an optical microscope. A percentage of eosinophils in inflammatory cells under 10×100 times microscope is observed, and an average value of 5 visual fields is taken as a result.
# [2] = tested on: IL-2, IL-4, IL-5, IL-6, IL-13, IL-17A, IL-28A, IL-33, IFN-α, IFN-β, IFN-γ, IFN-λ, Eotaxin in the nasal secretions; experiment: Cytokine levels in the nasal secretions measured by Luminex; assay type: in vivo, human; settings: for IL-2 in nasal secretions, after treatment: mean ± SD
# Experimental: (§1) Two pieces of 1.0 centimeter (cm)×1.5 cm sterile medical sponge are gently placed into the patient's bilateral nasal cavity for 1-5 minutes (min). After the sponge adsorbs enough the nasal secretions, the sponge is gently removed and put into a 2 milliliters (mL) syringe. The nasal secretions are squeezed out and collected in a 1.5 mL centrifuge tube, centrifuged at 3000 revolutions per minute (rpm) for 5 min, and the supernatant is taken and placed in a refrigerator at −80° C. for testing. Eosinophil cationic protein (ECP) in the nasal secretions is detected by enzyme-linked immunosorbent assay (ELISA). The ECP-ELISA kit is from Zhongmin Taike Biotechnology Co., Ltd. Cytokine levels of interleukin (IL)-2, IL-4, IL-5, IL-6, IL-13, IL-17A, IL-28A, IL-33, interferon (IFN)-α, IFN-β, IFN-γ, IFN-λ, and Eotaxin in the nasal secretions are measured by using Luminex (R&D; LXSAHM-13).
# [3] = tested on: Eosinophil cationic protein (ECP); experiment: ECP in the nasal secretions by ELISA; assay type: in vivo, human
# Experimental: as §1
# [4] = tested on: EB virus, human-cytomegalovirus, HSV 1, 2, 3, 6, 7, 8; experiment: DNA virus sequence enrichment analysis of nasal scraping cells; assay type: in vivo; settings: GCV effective group
# Experimental: The scraped mucosal epithelial cells are placed in a TRIzol™ reagent (Invitrogen™) and stored in liquid nitrogen for processing. Library preparation and high-throughput sequencing, data analysis, ribonucleic acid (RNA) sequence and deoxyribonucleic acid (DNA) virus sequence enrichment analysis are performed by Seqhealth Technology Co., Ltd. (China; wuhan). Sample quality analysis is performed by Nanodrop™ OneC spectrophotometer to detect expression at A260 and A280. Qualified samples are finally quantified by QubitR®3.0 fluorometer and Qubit™ RNA broad-range (BR) Assay kits. The original data is first filtered by Trimomatic (Version 0.36). Counting by FeatureCounts, and then calculate reads per kilobase of exon model per million mapped reads (RPKM). Differentially expressed genes between groups are identified using an edgeR package (Version 3.12.1). In analysis, P value<0.05 and fold change (FC) higher than 2 are considered to be significant differences in gene expression between groups.
# [5] = GCV effective group and GCV ineffective group
smiles,measurement,setting,value
"Nc1nc(O)c2ncn(COC(CO)CO)c2n1 [GCV, Ganciclovir]","percentage of eosinophils in nasal secretions, change after GCV treatment",[1]; [5],no significant change
same,"Nasal secretion eosinophils, after treatment","[1]; GCV effective group, before 90.54 ± 6.24",93.23 ± 11.99%
same,"Nasal secretion eosinophils, after treatment","[1]; GCV ineffective group, before 56 ± 46.30",54 ± 44.54%
same,"all cytokines and inflammatory factors in nasal secretions, change after GCV treatment",[2]; [5],do not change
same,"IFN-β in nasal secretions, after treatment","[2]; GCV effective group, before 26.49 ± 26.34",38.86 ± 54.29 pg/mL
same,"IFN-α in nasal secretions, after treatment","[2]; GCV effective group, before 31.09 ± 28.65",32.77 ± 23.83 pg/mL
same,"IL-6 in nasal secretions, after treatment","[2]; GCV effective group, before 39.10 ± 34.59",30.44 ± 27.04 pg/mL
same,"IL-17A in nasal secretions, after treatment","[2]; GCV effective group, before 55.38 ± 27.4",58.92 ± 43.93 pg/mL
same,"IL-4 in nasal secretions, after treatment","[2]; GCV effective group, before 109.67 ± 23.95",105.32 ± 25.44 pg/mL
same,"IFN-γ in nasal secretions, after treatment","[2]; GCV effective group, before 181.83 ± 266.06",120.24 ± 116.93 pg/mL
same,"IL-5 in nasal secretions, after treatment","[2]; GCV effective group, before 197.49 ± 388.67",134.24 ± 172.57 pg/mL
same,"Eotaxin in nasal secretions, after treatment","[2]; GCV effective group, before 206.5 ± 212.85",153.51 ± 101.87 pg/mL
same,"IL-33 in nasal secretions, after treatment","[2]; GCV effective group, before 277.39 ± 303.34",293.62 ± 396.68 pg/mL
same,"IFN-λ in nasal secretions, after treatment","[2]; GCV effective group, before 313.99 ± 194.7",331.23 ± 237.77 pg/mL
same,"IL-13 in nasal secretions, after treatment","[2]; GCV effective group, before 455.81 ± 190.16",397.80 ± 116.61 pg/mL
same,"IL-28A in nasal secretions, after treatment","[2]; GCV effective group, before 718.08 ± 263.12",740.68 ± 214.99 pg/mL
same,"IL-2 in nasal secretions, after treatment","[2]; GCV effective group, before 148.69 ± 43.59",132.85 ± 40.51 pg/mL
same,"IFN-β in nasal secretions, after treatment","[2]; GCV ineffective group, before 19.58 ± 12.05",17.86 ± 8.57 pg/mL
same,"Eotaxin in nasal secretions, after treatment","[2]; GCV ineffective group, before 36.79 ± 25.41",50.35 ± 47.92 pg/mL
same,"IL-6 in nasal secretions, after treatment","[2]; GCV ineffective group, before 49.62 ± 10.4",65.53 ± 44.86 pg/mL
same,"IL-17A in nasal secretions, after treatment","[2]; GCV ineffective group, before 59.88 ± 40.6",48.13 ± 18.73 pg/mL
same,"IFN-γ in nasal secretions, after treatment","[2]; GCV ineffective group, before 106.77 ± 51.92",80.25 ± 44.49 pg/mL
same,"IFN-α in nasal secretions, after treatment","[2]; GCV ineffective group, before 129.83 ± 170.32",57.51 ± 49.01 pg/mL
same,"IL-4 in nasal secretions, after treatment","[2]; GCV ineffective group, before 151.81 ± 71.34",116.44 ± 53.74 pg/mL
same,"IL-5 in nasal secretions, after treatment","[2]; GCV ineffective group, before 218.52 ± 189.78",70.26 ± 57.39 pg/mL
same,"IFN-λ in nasal secretions, after treatment","[2]; GCV ineffective group, before 371.83 ± 248.73",363.86 ± 203.72 pg/mL
same,"IL-13 in nasal secretions, after treatment","[2]; GCV ineffective group, before 382.32 ± 104.87",282.34 ± 55.29 pg/mL
same,"IL-28A in nasal secretions, after treatment","[2]; GCV ineffective group, before 392.09 ± 218.69",447.41 ± 202.35 pg/mL
same,"IL-33 in nasal secretions, after treatment","[2]; GCV ineffective group, before 583.28 ± 515.20",436.61 ± 500.63 pg/mL
same,"IL-2 in nasal secretions, after treatment","[2]; GCV ineffective group, before 139.75 ± 59.26",125.13 ± 58.88 pg/mL
same,"ECP in nasal secretions, change after GCV treatment",[3]; [5],no significant change
same,"ECP in nasal secretions, after treatment","[3]; GCV effective group, before 42.38 ± 41.04",20.18 ± 18.42 µg/mL
same,"ECP in nasal secretions, after treatment","[3]; GCV ineffective group, before 82 ± 18.01",45.993 ± 37.12 µg/mL
same,"enrichment of genes of EB virus, human-cytomegalovirus, HSV 1, 2, 3, 6, 7, 8 before and after GCV treatment (FIG. 3B)",[4],no statistical difference
